Usually mortality stands for the percentage killed. A higher mortality goes with fewer survivors.

Holding throughout (assay type): in vivo
The test system of data set [1] is Ctenocephalides felis. Put plainly: Ctenocephalides felis in-vitro contact test adult cat flea. Conditions: 5 μg/cm^2 (=500 g/ha), after 48 hours; for pest or weed control at 5 µg/cm2, 5 µg/cm2: Ctenocephalides felis, read-out: efficacy (fleas dead or moribund). The essentials:
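Compound in acetone was coated on glass tube walls, giving 5 μg/cm^2 at 900 ppm. 5-10 adult cat fleas were held at room temperature for 48 h, then heat-challenged at 45-50° C. Fleas immotile or uncoordinated were scored dead/moribund, expressed as % efficacy.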

The subject of another data set is Diabrotica balteata. Put plainly: Diabrotica balteata spray test. Conditions: 160 μg/well, wheat seeds, after 7 days; for pest or weed control at 160 µg/disc, 160 µg/well: Diabrotica balteata, 168 h, read-out: efficacy (seedlings grown). Put shortly:
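Wheat seeds germinated 1 day on agar were sprayed with compound diluted in water with 1000 ppm emulsifier, then infested with 10-20 Diabrotica balteata larvae. Efficacy in % scored after 7 days: 100% = seedlings grown as untreated, uninfected control; 0% = no seedlings grown.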

Another data set relates to Myzus persicae. Put plainly: Myzus persicae oral test. Conditions: 120 h. The essentials:
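Feeding test: compound diluted in water was combined with IPL41 insect medium (33%+15% sugar) under a parafilm seal. A mixed population of green peach aphids fed through the membrane. Mortality (%) was scored after 5 days.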

A further data set deals with Nezara viridula. Put plainly: Nezara viridula spray test. Conditions: in Hordeum vulgare, 96 h. Put shortly:
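Barley plants infested with stink bug larvae were sprayed with compound diluted in water containing 1000 ppm emulsifier. Mortality (%) was scored after 4 days, 100% meaning all bugs killed.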

The test system of a further data set is Nilaparvata lugens. Put plainly: Nilaparvata lugens spray test. Conditions: Nilaparvata lugens, in Oryza sativa, 96 h. Put shortly: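 Rice plants sprayed with compound diluted in water containing 1000 ppm emulsifier, then infested with brown planthopper. Mortality (%) scored after 4 days, 100% meaning all insects killed.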
The next data set deals with Phaedon cochleariae. Put plainly: Phaedon cochleariae spray test. Conditions: foliar, 168 h, Chinese cabbage leaf disks, after 7 days. The essentials: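 Chinese cabbage leaf disks sprayed with compound diluted in water containing 1000 ppm emulsifier, then infested with mustard beetle larvae once dry. Mortality in % scored after 7 days (100% = all larvae killed, 0% = none).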

A further data set has as its system Spodoptera frugiperda. Put plainly: Spodoptera frugiperda spray test. Conditions: in Zea mays, 168 h. Put shortly: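 Compound mixed with solvent, diluted with 1000 ppm emulsifier water to test concentrations; sprayed on maize leaf pieces; dried; larvae added; mortality (%) scored at 7 d.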
A further data set has as its system Tetranychus urticae. Put plainly: Tetranychus urticae spray test OP-resistant. Conditions: French bean leaf disks, after 6 days; for mortality at 500 g/ha: Tetranychus urticae, foliar, 144 h; for mortality: 500 g/ha. As to the method:
Tetranychus urticae—Spray Test OP-Resistant
To produce a suitable preparation of active compound, 1 part by weight of active compound is mixed with the stated amount of solvents and is diluted with water, containing an emulsifier concentration of 1000 ppm, to the desired concentration. Further test concentrations are prepared by dilution with emulsifier containing water.
French bean (Phaseolus vulgaris) leaf disks infected with all instars of the two spotted spidermite (Tetranychus urticae), are sprayed with a preparation of the active ingredient of the desired concentration.
After 6 days mortality in % is determined. 100% means all spider mites have been killed and 0% means none of the spider mites have been killed.

The subject of a further data set is Rhipicephalus sanguineus. Put plainly: Rhipicephalus sanguineus in-vitro contact test with adult brown dog ticks. Conditions: 5 μg/cm^2 (=500 g/ha), after 48 hours. How it is done: Rhipicephalus sanguineus—In-Vitro Contact Test with Adult Brown Dog Ticks
9 mg compound is solved in 1 ml acetone and diluted with acetone to the desired concentration. 250 μl of the test solution is filled in 25 ml glass test tubes and homogeneously distributed on the inner walls by rotation and tilting on a shaking device (2 h at 30 rpm). With a compound concentration of 900 ppm, an inner surface of 44.7 cm^2 and a homogeneous distribution, a dose of 5 μg/cm^2 is achieved.
After the solvent has evaporated, each test tube is filled with 5-10 adult brown dog ticks (Rhipicephalus sanguineus), closed with a perforated lid and incubated in a lying position at room temperature and relative humidity. After 48 hours efficacy is determined. The ticks are patted on the ground of the tubes and are incubated on a heating plate at 45-50° C. for at most 5 minutes. Immotile or uncoordinated moving ticks, which are not able to escape the heat by climbing upwards, are marked as dead or moribund.
An efficacy of 100% means all ticks are dead or moribund; 0% means no ticks are dead or moribund.

Another data set deals with Boophilus microplus. Put plainly: Boophilus microplus injection test. Conditions: 20 μg/animal, egg deposition after 7 days; for pest or weed control at 0.02 mg: Rhipicephalus microplus, 168 h, read-out: efficacy (infertile eggs). Put shortly:
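Engorged adult female ticks, five per dose, received 1 μl of compound in DMSO injected into the abdomen and were kept in a climate chamber. Fertile egg deposition was checked after 7 days, with eggs of unclear fertility held until hatching at about 42 days. Efficacy 100% = all eggs infertile, 0% = all fertile.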

Data set [2] has as its system Ctenocephalides felis. Put plainly: Ctenocephalides felis oral test. Conditions: for mortality at 100 ppm: Ctenocephalides felis, in Bos taurus, po, 48 h. Put shortly: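 About 20 adult unfed fleas fed through parafilm on cattle blood containing compound (DMSO concentrate diluted in blood); blood held at 37° C., fleas at room temperature. Mortality in % scored after 2 days (100% = all killed).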

Data set [3] concerns cattle ticks (Boophilus microplus) strane Parhurst, SP-resistant. Put plainly: Boophilus microplus dip test. Conditions: 100 ppm, egg deposition after 7 days. How it is done:
Boophilus microplus—Dip Test
Test animal: cattle ticks (Boophilus microplus) strane Parhurst, SP-resistant
Solvent: dimethyl sulfoxide
To produce a suitable preparation of active compound, 10 mg of active compound are dissolved in 0.5 ml solvent, and the concentrate is diluted with water to the desired concentration.
This compound solution is pipetted into tubes. 8-10 engorged, adult, female cattle ticks (Boophilus microplus) are placed in perforated tubes. These tubes are immersed in the aqueous compound solution until the ticks are completely moistened. After the liquid has drained off, the ticks are transferred to a filter paper in a plastic tray and stored in a climate chamber.
After 7 days egg deposition of fertile eggs is monitored. Eggs where fertility is not visible are stored in a climate chamber till hatching after about 42 days. An efficacy of 100% means all eggs are infertile; 0% means all eggs are fertile.

For the molecule `CC(c1ncnn1-c1ncccn1)N(CC1CC1)C(=O)c1cccc(S(=O)(=O)C(F)(F)F)c1` (stereo not drawn) [Example I-005, N-(cyclopropylmethyl)-N-{1-[1-(pyrimidin-2-yl)-1H-1,2,4-triazol-5-yl]ethyl}-3-[(trifluoromethyl)sulfonyl]benzamide], the pest or weed control at 5 µg/cm2, 5 µg/cm2 in the data set with Ctenocephalides felis [1] was 90%. Also, in the data set on Diabrotica balteata, the pest or weed control at 160 µg/disc, 160 µg/well was 100%. Also, the mortality at 4 ppm in the data set on Myzus persicae came out at 90%. This molecule gave a mortality at 20 ppm with Myzus persicae of 100%. For the same molecule, the mortality at 500 g/ha in the data set on Nezara viridula worked out at 100%; in the data set with Nilaparvata lugens it was 100%; in the data set on Phaedon cochleariae, 100%; with Spodoptera frugiperda, 100%; in the data set with Tetranychus urticae it was 80%.
Take `CC(c1ncnn1-c1ncccn1)N(CC1CC1)C(=O)c1cncc(S(=O)(=O)C(F)(F)F)c1` (stereo not drawn) [Example I-006]: the pest or weed control at 5 µg/cm2, 5 µg/cm2 was 90% in the data set with Ctenocephalides felis [1] and 80% in the data set on Rhipicephalus sanguineus (Rhipicephalus sanguineus, read-out: efficacy (ticks dead or moribund)). Moreover, in the data set with Boophilus microplus, the pest or weed control at 0.02 mg came out at 100%. The molecule also yielded a mortality at 100 ppm in the data set on Ctenocephalides felis [2] of 100%. The pest or weed control at 160 µg/disc, 160 µg/well with Diabrotica balteata was found to be 100%. Moreover, the mortality at 4 ppm with Myzus persicae was found to be 90%. Also, the mortality at 20 ppm in the data set on Myzus persicae came to 100%. The mortality at 500 g/ha is 100% in the data set on Nezara viridula, 100% in the data set with Nilaparvata lugens, 100% with Phaedon cochleariae and 95% in the data set on Tetranychus urticae.
As to `CC(c1ncnn1-c1ncccn1)N(CC1CC1)C(=O)c1cc(C2CC2)cc(C(F)(F)F)c1` (stereo not drawn) [Example I-008], in the data set with Diabrotica balteata, the pest or weed control at 160 µg/disc, 160 µg/well came out at 100%. In the data set on Myzus persicae, this molecule displayed a mortality at 4 ppm of 100%. In the data set on Myzus persicae, this molecule showed a mortality at 20 ppm of 100%. For the same molecule, the mortality at 500 g/ha in the data set with Nezara viridula was 100%; in the data set on Nilaparvata lugens it was 100%; in the data set on Phaedon cochleariae it was 100%; with Spodoptera frugiperda, 100%; in the data set on Tetranychus urticae it was 95%.
Consider `CC(NC(=O)c1cc(Cl)cc(S(C)(=O)=O)c1)c1ncnn1-c1ncccn1` (stereo not drawn) [Example I-020, 3-chloro-5-(methylsulfonyl)-N-{1-[1-(pyrimidin-2-yl)-1H-1,2,4-triazol-5-yl]ethyl}benzamide], for which, in the data set on Ctenocephalides felis [1], the pest or weed control at 5 µg/cm2, 5 µg/cm2 was determined as 100%. Also, the pest or weed control at 0.02 mg in the data set on Boophilus microplus was 100%. Further, the “efficacy (infertile eggs)” value in data set [3] is listed as 100%. The molecule also gave a mortality at 100 ppm with Ctenocephalides felis [2] of 100%. The pest or weed control at 160 µg/disc, 160 µg/well in the data set on Diabrotica balteata came to 100%. In the data set with Myzus persicae, this molecule had a mortality at 4 ppm of 100%. Moreover, the mortality at 20 ppm in the data set with Myzus persicae turned out to be 100%. For the same molecule, the mortality at 500 g/ha in the data set on Nezara viridula, in the data set with Nilaparvata lugens and in the data set on Phaedon cochleariae was 100% in each case.
For `Cc1nc(C(C)NC(=O)c2cc(Cl)cc(S(C)(=O)=O)c2)n(-c2ncccn2)n1` (stereo not drawn) [Example I-034], the “efficacy (fleas dead or moribund)” value in the data set on Ctenocephalides felis [1] is on record as 100%. The “efficacy (ticks dead or moribund)” value with Rhipicephalus sanguineus turned out to be 80%. Moreover, the “efficacy (infertile eggs)” value (in the data set on Boophilus microplus; in [3]) was 100% each time. Also, the “efficacy (seedlings grown)” value in the data set on Diabrotica balteata came to 100%.
Consider `CC(NC(=O)c1cc(Cl)cc(S(C)(=O)=O)c1)c1ncnn1-c1ncc(F)cn1` (stereo not drawn) [Example I-036], for which the “efficacy (fleas dead or moribund)” value in the data set on Ctenocephalides felis [1] came to 100%. In addition, the “efficacy (ticks dead or moribund)” value with Rhipicephalus sanguineus amounted to 80%. Also, the “efficacy (infertile eggs)” value in the data set on Boophilus microplus stood at 100%; in data set [3], 90%. In addition, in the data set on Diabrotica balteata, the “efficacy (seedlings grown)” value is given as 100%.
Consider `CC(NC(=O)c1ccc(S(=O)(=O)C(F)(F)F)cc1)c1ncnn1-c1ncccn1` (stereo not drawn) [Example I-056], for which the mortality in the data set with Ctenocephalides felis [2] (100 ppm in cattle blood, after 2 days) was 90%; in the data set on Tetranychus urticae, 90%.
As to `CC(NC(=O)c1cncc(-c2ccc(Cl)cc2)c1)c1ncnn1-c1ncccn1` (stereo not drawn) [Example I-112], the mortality with Tetranychus urticae was determined as 90%.

The values are drawn from patent publication US12187705B2, “Heteroaryl-triazole and heteroaryl-tetrazole compounds as pesticides” (Bayer Aktiengesellschaft, priority 2018, dated 2025).
